This note sets out measurements from patent publication US12616753B2, “HSP70 inhibitors and methods of using same” (THE WISTAR INSTITUTE, priority 2020, dated 2026).

Each structure is given as a SMILES string.

In the assay the target is N-terminal HIS tagged HSP70 (Homo sapiens, UniProt P0DMV8). Put plainly: Small molecule binding to HSP70 using SPR (Biacore T200). How it is done: SPR experiments were conducted using the Biacore T200. Approximately 20,000 RU of N-terminal HIS tagged HSP70 was immobilized on a multi-dentate NTA derivatized linear carboxylate sensor chip (NICH1500M, Xantec Bioanalytics). The running buffer was PBS containing 2 mM MgCl2, 0.05% Tween, and 5% DMSO. Test compounds were diluted at 20× final concentration in 100% DMSO and then diluted into running buffer without DMSO so that the DMSO concentrations in both the sample and the running buffer were similar. Flow rate was 30 μL/min, contact time for each sample concentration was 30 seconds, followed by a 60 second dissociation time. Data were analyzed using the Biacore evaluation software and the resulting sensograms exported and re-plotted in GraphPad Prism.
Chain of N-terminal HIS tagged HSP70 (P0DMV8 whole entry): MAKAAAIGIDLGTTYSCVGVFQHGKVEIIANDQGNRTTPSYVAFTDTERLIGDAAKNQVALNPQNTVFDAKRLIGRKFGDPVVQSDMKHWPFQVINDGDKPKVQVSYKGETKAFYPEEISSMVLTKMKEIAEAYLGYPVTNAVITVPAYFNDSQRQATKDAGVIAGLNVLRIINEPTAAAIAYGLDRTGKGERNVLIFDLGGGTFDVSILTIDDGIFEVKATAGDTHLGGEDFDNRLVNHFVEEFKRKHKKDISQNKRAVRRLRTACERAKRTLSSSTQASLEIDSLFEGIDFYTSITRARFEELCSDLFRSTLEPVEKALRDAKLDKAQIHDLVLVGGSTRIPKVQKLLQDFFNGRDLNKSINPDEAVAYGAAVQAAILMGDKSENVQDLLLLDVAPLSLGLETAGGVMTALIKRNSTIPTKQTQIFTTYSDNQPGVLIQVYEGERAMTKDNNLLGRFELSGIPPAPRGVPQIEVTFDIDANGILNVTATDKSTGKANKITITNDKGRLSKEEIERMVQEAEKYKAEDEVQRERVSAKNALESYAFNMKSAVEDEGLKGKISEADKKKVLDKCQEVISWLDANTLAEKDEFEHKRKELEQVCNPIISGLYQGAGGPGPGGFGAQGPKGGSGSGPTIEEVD
The next studies sought to determine whether AP-4-139B interacts directly with HSP70. To accomplish this, full-length His-tagged human HSP70 was used, and it was immobilized on a high affinity poly-Ni-NTA sensor chip for surface plasmon resonance experiments on a Biacore T200. This HSP70-loaded chip was incubated with AP-4-139B or the negative control VY-3-277. As a positive control the adenosine-derived HSP70 inhibitor Ver-155008 was used (Massey et al., Cancer Chemother Pharmacol. 2010 August; 66(3):535-45).
In general terms: Surface plasmon resonance follows binding to a sensor surface in real time, without labels.

In the case of `c1ccc(-c2cn3nc(CCCCCC[P+](c4ccccc4)(c4ccccc4)c4ccccc4)sc3n2)cc1` [AP-4-139B, Triphenyl(6-(6-phenylimidazo[2,1-b][1,3,4]thiadiazol-2-yl)hexyl)phosphonium bromide], the “binding to sensor chips loaded with HSP70” value is “reproducibly bound in concentration-dependent manner”.
